Experiment [1] can be described thus: Antidepressant activity in the behavioural despair test in the mouse. The class given is in vivo, mouse (male CD1). The note with it: for inhibition in vivo at 1 mg/kg / inhibition in vivo at 3 mg/kg / inhibition in vivo at 10 mg/kg / inhibition in vivo at 30 mg/kg: 5 min, 5 minutes, read-out: Decrease in immobility (as %) vs the controls; for inhibition in vivo at 1 mg/kg: 1 mg/kg IP; for inhibition in vivo at 3 mg/kg: 3 mg/kg IP; for inhibition in vivo at 10 mg/kg: 10 mg/kg IP; for inhibition in vivo at 30 mg/kg: 30 mg/kg IP; for ED50: read-out: ED50 (dose antagonising immobility time by 50%). From the text: 5) Antidepressant activity in the "behavioural despair test" Another interesting aspect of the pharmacological activity of these products is the potent antidepressant activity which some of them display in an experimental model in the mouse, in which a state of depression is induced experimentally by the method of Porsolt et al. (Arch. Int. Pharmacodyn. 229, p. 327-336 (1977)). Male CDl mice which weighed about 20-25 g and had not fasted were used. The test consisted of inducing a state of depression in the animal which was subjected to forced swimming in a glass cylinder from which it could not escape. After a short period of vigorous activity the mouse adopted a characteristic posture of immobility which was easily identifiable; this immobility is reduced by antidepressant drugs. 1 l glass beakers, filled to 700 ml with water at a temperature of 25° C. were used for the test. The mice, 8 per group, were treated intraperitoneally with the drug under test, 30 minutes before the test. At time 0, each animal was immersed in a beaker and, after one minute during which all moved about swimming vigorously in order to escape, regardless of treatment, the observer, who was unaware of the treatment, assigned the following points: 0=animal immobile 1=minimum movement to remain afloat 2=vigorous swimming The greater the antidepressant activity of the drug, the more the animals will move about in order to try to escape from the water. The points were assigned every 15 sec for a total period of 5 min with a total of 20 observations. The antidepressant activity was determined with the use of various doses of the compound by the regression method as the ED50, that is, the dose in mg/kg of the compound which could antagonise the animal's immobility time by 50%.

Experiment [2] in a line: Antiamnesic activity in the mouse (step-down passive avoidance, amnesia induced by ECS). The class given is in vivo, mouse (CD1 male). The note with it: mouse; for change in vivo at 3 mg/kg: 3 mg/kg OS; for change in vivo at 3 mg/kg / change in vivo at 10 mg/kg / change in vivo at 30 mg/kg / change in vivo at 0.1 mg/kg / change in vivo at 1 mg/kg / change in vivo at 0.3 mg/kg: retest 24 h after training, read-out: Reversal of the amnesia (% vs controls), as the increase in the Step Down Latency; for change in vivo at 10 mg/kg: 10 mg/kg OS; for change in vivo at 30 mg/kg: 30 mg/kg OS; for change in vivo at 0.1 mg/kg: 0.1 mg/kg OS; for change in vivo at 1 mg/kg: 1 mg/kg OS; for change in vivo at 0.3 mg/kg: 0.3 mg/kg OS. From the text: 1) Antiamnesic activity in the mouse (step-down passive avoidance)
An electroconvulsive shock (ECS) produces retrograde amnesia in the test animal if applied immediately after the training received, for example, a harmful stimulus of a suitable intensity.
The object of the experiment was to study the effects of the compounds of the invention in antagonizing the amnesic effect of an ECS on the short-term memory consolidation process.
CD1 male mice which weighed about 30-35 g, and had not fasted were used. The equipment used was a rectangular plexiglass cage (21×21×40cm) with an electrifiable grid floor and a wooden cube (4×4×4 cm) fixed in the centre of the cage. The animals were treated orally with the product under test 60 minutes before the training.
The mouse was placed delicately on the wooden cube and the time it took to descend to the grid floor (SDL=step-down latency) was measured. When all four of the animal's paws were resting on the floor the continuous 0.2 mA shock started and the time taken by The mouse to remount the wooden cube (EL=escape latency) was measured.
The animals with an SDL of between 3 and 30 sec and with an EL of between 3 and 60 sec were used for retesting.
Immediately afterwards, a transcorneal ECS was applied with the use of the following parameters: amperage 15 mA, frequency 50 Hz, duration of the train of pulses 0.4 sec. duration of each individual pulse 1 msec., interval between pulses 20 msec. As well as the groups treated with ECS, a control group without ECS and a control group with ECS were used.
The retest was carried out after 24 h.
The results are expressed as the percentage variation of the SDL of the treated groups in comparison with the control group by means of this formula: [formula]

Experiment [3] concerns the target excitor amino-acid receptors of cortical membranes ("forebrain") of rats. Description: Inhibition of the specific binding of [3H]-glutamate to rat forebrain membranes. The note with it: rat forebrain membranes, 20 min, 37° C., pH 7.1. From the text:
6) Studies on binding to rat "forebrain" membranes
L-glutamate recognizes all three receptor subtypes indicated above, al though not selectively. It is therefore desirable to evaluate the capacity of each of the compounds of the invention to interact with the excitor amino-acid receptors of the CNS.
"Forebrain", that is, the cerebral cortex and the hippocampus, were selected as the receptor tissue and ^3 H-L-glutamate as the ligand for marking this heterogenous receptor population.
Rat cerebral tissue (forebrain without striated tissue) was therefore homogeneised cold in tris buffer at pH 7.4. After washing and centrifuging, the final pellet was resuspended in 50 volumes of tris HCl binding buffer at 7.1. 0.5 ml of receptor membrane thus obtained were then incubated, together with the radioactive tracer and the compounds under test, for 20 min at 37° C. The reaction was terminated by separating the bound radio-ligand from the free radio-ligand by filteration on glass-fibre filters which, after washing, were counted in a liquid scintillator (a β-counter) thus determining the radioactivity associated with the pellet. The specific binding was determined as the difference between the binding in the absence and in the presence of cold 3.6 mM L-glutamate.

Experiment [4] in a line: Memory-enhancement activity in the passive avoidance test in the rat. The class given is in vivo, rat (male Wistar). The note with it: rat, retest on the 4th day; for change in vivo at 0.1 mg/kg / change in vivo at 1 mg/kg / change in vivo at 10 mg/kg: 96 h, 6 treatments, read-out: % variation vs controls (FS) in step through latency; for change in vivo at 0.1 mg/kg: 0.1 mg/kg IP; for change in vivo at 1 mg/kg: 1 mg/kg IP; for change in vivo at 10 mg/kg: 10 mg/kg IP. Here is the method: 2) Memory-enhancement activity in the "passive avoidance" test in the rat
A "passive avoidance" model was used, which required a single "step-through" situation and a retest of the "retention memory" 72 h after the training.
Male Wistar rats which weighed about 200 g and had not fasted, were used. The test consisted of evaluating the degree of memory of an animal after it had been trained as follows.
The equipment used was a shuttle box modified thus: one compartment was lined with black card including the cover, and a 60 W lamp was disposed above the other, spaced from the grid floor by about 40 cm. The two compartments were divided by an automatic guillotine-like door. Each animal was placed in the compartment in the light with the guillotine-likedoor open. From this moment, the time taken by the rat to go into the compartment lined with black card (the dark compartment) (the step-throughlatency=STL) was measured. The animals which took more than 30 sec to go into the dark were discarded. Once they had gone into the dark, the door was lowered automatically and a=0.1 mA shock lasting 5 sec (a foot shock=FS) started. After 10 sec, the animal was removed from the shuttle box.
Upon completion, the animals were selected randomly in homogeneous groups and treated with the products.
The retest to determine memory was made after 72 hours. The products were administered chronically in the preselected manner twice per day and the last treatment 30 min before the retest (6 treatments altogether).
The memory-retention test (the retest) consisted of placing each animal, treated 30 min beforehand with a physiological solution or with the product, in the compartment which was not lined with black card for 30 sec.
The results are expressed as the percentage variation of the STL (in seconds) of the groups treated in comparison with the control group by means of this formula: [formula]

Here are results for eleven compounds from patent US5723494A, “Derivatives of glutamic and aspartic acids, a method of preparing them, and their use as drugs for enhancing memory and learning” (priority 1993, dated 1998).

The structures appear in SMILES notation.

The IC50 is the concentration needed to halve the response being measured. In the case of `N[C@@H](CCC(=O)O)C(=O)NC1CCC2CCCCC2C1` (some centres unmarked) [Compound 11], in experiment [1], the inhibition in vivo at 1 mg/kg was determined as 5%, the inhibition in vivo at 3 mg/kg amounted to 32%, the inhibition in vivo at 10 mg/kg turned out to be 64% and the inhibition in vivo at 30 mg/kg was determined as 19%. Besides, the ED50 in experiment [1] (IP) amounted to 13.5 mg/kg. Further, in experiment [2] (po), the change in vivo at 3 mg/kg turned out to be 3%, the change in vivo at 10 mg/kg stood at 0% and the change in vivo at 30 mg/kg worked out at 10%. The compound further yielded an IC50 in experiment [3] of 35.7 µM.

`N[C@@H](CCC(=O)NCCC12CC3CC(CC(C3)C1)C2)C(=O)O` [Compound 45]: in experiment [4], the change in vivo at 0.1 mg/kg amounted to 0%, the change in vivo at 1 mg/kg was 0% and the change in vivo at 10 mg/kg amounted to 12%. Further, the “Antiamnesic activity (in words)” value in experiment [2] (OS) was “less active”. In experiment [2] (po), the change in vivo at 3 mg/kg was determined as 3%, the change in vivo at 10 mg/kg was found to be 20% and the change in vivo at 30 mg/kg came to 55%. Besides, the ED50 in experiment [2] (po, OS, 60 min before training, read-out: ID50 (antiamnesic activity, dose inhibiting the amnesic effect of the ECS by 50%)) was determined as 28.9 mg/kg. In experiment [3], this compound displayed an IC50 of 61.2 µM.

Take `N[C@H](CCC(=O)O)C(=O)NCCC12CC3CC(CC(C3)C1)C2` [Compound 17]: in experiment [4], the change in vivo at 0.1 mg/kg was found to be 0%, the change in vivo at 1 mg/kg amounted to 0% and the change in vivo at 10 mg/kg was 0%. Also, in experiment [4] (IP), the “Activity in increasing the avoidance time (in words)” value was “inactive”. Further, in experiment [1], the inhibition in vivo at 3 mg/kg is 7%, the inhibition in vivo at 10 mg/kg was 12% and the inhibition in vivo at 30 mg/kg was 0%. Besides, in experiment [1] (IP), the “Antidepressant activity (in words)” value was “inactive” and the “ED50 (dose antagonising immobility time by 50%)” value is on record as “Inactive”. In addition, the “Antiamnesic activity (in words)” value in experiment [2] (OS) is “completely inactive”. In addition, in experiment [2] (po), the change in vivo at 0.1 mg/kg worked out at 0%, the change in vivo at 1 mg/kg is 14% and the change in vivo at 10 mg/kg is 10%. The IC50 in experiment [3] amounted to 312 µM.

`N[C@@H](CCC(=O)O)C(=O)N1CCC2(CCCC2)CC1` [Compound 30]: in experiment [1], the inhibition in vivo at 3 mg/kg came out at 0%, the inhibition in vivo at 10 mg/kg worked out at 25% and the inhibition in vivo at 30 mg/kg amounted to 20%. Besides, the “ED50 (dose antagonising immobility time by 50%)” value in experiment [1] (IP) is “Not Calculable”. This compound displayed an IC50 in experiment [3] of 368 µM.

For the compound `CCCCCNC(=O)[C@@H](N)CCC(=O)O` [Compound 2], in experiment [2] (po), the change in vivo at 0.3 mg/kg was determined as 0%, the change in vivo at 3 mg/kg is 0% and the change in vivo at 30 mg/kg amounted to 0%. This compound yielded an IC50 in experiment [3] of 74.6 µM.

Turning to `N[C@@H](CCC(=O)O)C(=O)NC12CC3CC(CC(C3)C1)C2` [Compound 14], in experiment [1], the inhibition in vivo at 3 mg/kg amounted to 0%, the inhibition in vivo at 10 mg/kg amounted to 0% and the inhibition in vivo at 30 mg/kg was 21%. For the same compound, the “ED50 (dose antagonising immobility time by 50%)” value in experiment [1] (IP) is listed as “Inactive”. In experiment [3], this compound had an IC50 of 73.3 µM.

As for `N[C@@H](CCC(=O)O)C(=O)NC1CC2CCC1C2` (some centres unmarked) [Compound 10], in experiment [2] (po), the change in vivo at 0.1 mg/kg was determined as 0%, the change in vivo at 1 mg/kg was determined as 26% and the change in vivo at 3 mg/kg was 23%. The compound also registered an IC50 in experiment [3] of 16 µM.

`CC(C)(C)CCCNC(=O)[C@@H](N)CCC(=O)O` [Compound 7]: in experiment [1], the inhibition in vivo at 3 mg/kg came to 19%, the inhibition in vivo at 10 mg/kg worked out at 51% and the inhibition in vivo at 30 mg/kg worked out at 67%. Moreover, the ED50 in experiment [1] (IP) is 12.3 mg/kg. In experiment [3], this compound registered an IC50 of 194 µM.

Take `N[C@@H](CCC(=O)O)C(=O)NC1C2CC3CC(C2)CC1C3` (some centres unmarked) [Compound 15]: in experiment [1], the inhibition in vivo at 3 mg/kg was 0%, the inhibition in vivo at 10 mg/kg stood at 33% and the inhibition in vivo at 30 mg/kg amounted to 75%. Further, in experiment [1] (IP), the ED50 is 15.4 mg/kg. This compound also registered an IC50 in experiment [3] of 132 µM.

Regarding `CC1(C)CCC(NC(=O)CC[C@H](N)C(=O)O)CC1` [Compound 48, 1-(4,4-dimethylcyclohexyl)-L-glutamine], in experiment [4], the change in vivo at 0.1 mg/kg was determined as 6%, the change in vivo at 1 mg/kg came out at 0% and the change in vivo at 10 mg/kg came out at 18%. Also, in experiment [1], the inhibition in vivo at 1 mg/kg was 0%, the inhibition in vivo at 3 mg/kg was determined as 9%, the inhibition in vivo at 10 mg/kg was 18% and the inhibition in vivo at 30 mg/kg turned out to be 38%. In addition, the “ED50 (dose antagonising immobility time by 50%)” value in experiment [1] (IP) is “Not Calculable”. Also, the half-maximal inhibitory concentration (IC50) in experiment [3] stood at 70.7 µM.

Regarding `CC(C)(C)CCNC(=O)[C@@H](N)CCC(=O)O` [Compound 5], in experiment [1], the inhibition in vivo at 3 mg/kg is 12%, the inhibition in vivo at 10 mg/kg was determined as 32% and the inhibition in vivo at 30 mg/kg came out at 23%. The “ED50 (dose antagonising immobility time by 50%)” value in experiment [1] (IP) was “Not Calculable”. Also, in experiment [2] (po), the change in vivo at 0.3 mg/kg is 7%, the change in vivo at 3 mg/kg came out at 10% and the change in vivo at 30 mg/kg amounted to 22%. In addition, the IC50 in experiment [3] was found to be 20.1 µM.
